Here are results for two molecules from patent US20240299353A1, “COMPOSITIONS AND METHODS FOR TREATING […] 5-MEO-DMT” (Alvarius Pharmaceuticals Ltd., priority 2021, published 2024).

One series deals with G9a. The conditions noted are these: repeated cocaine; cited from earlier work.
Another series deals with rats. Kind of series: Acute adverse effects (serotonin-associated toxicity) in the behaviour study. It counts as in vivo. The protocol:
In this instance the animals were 9 weeks old at the initiation of drug exposures and we selected just the high (20 mg/kg) dose of 5-MeO-DMT from the molecular study. […] Due to the number of behavioral paradigms to be completed by each animal we divided the study into two cohorts staggered by two weeks with 8 animals coming from each cohort to make up the 16 animals for each treatment group. 23 hours after 5-MeO-DMT administration the animals were introduced to the open field arena where they were allowed to freely explore the area for 5 mins. Following the open field test (OFT) animals were returned to their home cage for 2 hours before beginning either the elevated plus maze (EPM) or pre-pulse inhibition (PPI) testing. 24 hours after completing the OFT animals were returned to the chamber for the first session in novel object (NO1) testing. The animals were returned to their home cage for 2 hours before beginning the EPM or PPI test. 24 hours after NO1 the animals returned to the open field chamber for the second session in novel object (N02) testing. After completing N02 animals were returned to their home cage for 2 hours before they underwent the forced swim test (FST) pre-test. 24 hours later the animals were returned to the FS cylinders for the FST. Upon completion of the FST all animals were euthanized. A timeline of this experimental cohort is described in FIG. 8A.
Within 5-10 mins of administration a series of symptoms emerged that we believed were indicative of acute serotonin-associated toxicity, usually termed “serotonin syndrome” as a result of excessive serotonergic activity (Haberzettl et al. 2013). These symptoms overlap with those induced by acute psychedelic administration including head twitches, tremor, hind limb abduction, Straub tail, head shaking, head weaving and flat/low body posture however in this instance symptoms progressed rapidly to include hyperthermia, tachycardia, trembling and seizures. […] In total 7 of the 16 animals that were administered 20 mg/kg 5-MeO-DMT died or were euthanized for ethical reasons. […] As the study was divided into two cohorts we consulted with the designated vet in BMF as to what amendments should be made to our study protocol to reduce the risk of harm to animals in cohort 2 and a number of changes were implemented to the study design as outlined below.
The experiment was conducted as described for cohort 1 for the first 13 days of injections. There are a number of notable differences in experimental procedures between the two cohorts of animals to be highlighted. […] Finally, the dose of 5-MeO-DMT was reduced to 10 mg/kg. The order and timing of all the behavioral paradigms were kept constant between the cohorts. A timeline of this experimental cohort is described in FIG. 8B. Additionally, 5-MeO-DMT administrations were staggered so animals could be observed for the duration of acute drug effects and to ensure recovery prior to the next animal being injected. The typical symptoms of psychedelic drug administration outlined above were reproduced in all animals administered 5-MeO-DMT.

Series [1] concerns top 10 cocaine-dysregulated biological pathways in the hippocampus. Kind of series: Biological pathway analysis (IPA) of transcriptomics, cocaine-dysregulated pathways. Format: in vivo, Male Wister rats. The following applies: single treatment. The protocol: Animals were then randomly allocated to one of five groups and received a single i.p. injection of one of vehicle, 5 mg/kg 5-Meo-DMT, 0.14 mg/kg LSD, 1 mg/kg psilocybin, or 1 mg/kg DOI. On day 15, animals were euthanised and the hippocampus blunt dissected, snap frozen in liquid nitrogen and stored at −80° C. until further processing.
Subsequent pathway analyses were done using Ingenuity Pathway Analysis (IPA). Analysis settings for IPA included the Ingenuity Knowledge Base (Genes Only), direct and indirect relationships, and endogenous chemicals of the previously filtered list of differentially expressed genes. IPA was filtered to only consider molecules where the species were human, rat, or mouse and the confidence can be experimentally observed. Canonical pathways were utilized in pathway analysis, where the spreadsheet organized the values of significance to −log(p-value) and the rate of regulation to the z-score. Negative z-score values indicate downregulation and positive values indicate upregulation.

A further series addresses 5-HT1AR. The following applies: canonical signaling activity measured; read-out: affinity (Ki) for the 5-HT1AR subtype; cited from earlier work.
Another series has as its target 5-HT2Rs. The following applies: canonical signaling activity measured; read-out: affinity for the 5-HT2Rs; cited from earlier work.
The subject of a further series is cerebral organoids. The conditions noted are these: 5-MeO-DMT treated cerebral organoids; cited from earlier work.
For series [2] the following is noted: acute administration in animals; cited from earlier work.

As to `COC(=O)[C@H]1[C@@H](OC(=O)c2ccccc2)C[C@@H]2CC[C@H]1N2C.Cl` [cocaine, cocaine hydrochloride, reference compound], in the series with G9a, the “reduction in G9a expression” value is 19%.
Take `COc1ccc2[nH]cc(CCN(C)C)c2c1` [5-MeO-DMT, 5-methoxy-N,N-dimethyltryptamine]: the “time to emergence of symptoms indicative of acute serotonin-associated toxicity” value in the series on rats (cohort 1 (20 mg/kg 5-MeO-DMT)) was in the range of 5 to 10 min. The “adverse effects after administration” value with rats (cohort 1, 20 mg/kg 5-MeO-DMT, 1 h after last saline or cocaine) was “strong adverse effects in a significant proportion of animals”. Also, the “animals that died or were euthanized for ethical reasons” value in the series with rats (cohort 1, all animals administered 20 mg/kg 5-MeO-DMT) is given as 7 of the 16. The “animals that died or were euthanized” value came to 5 animals in the series on rats (cohort 1, cocaine+5-MeO-DMT (20 mg/kg) group) and 2 animals in the series with rats (cohort 1, saline+5-MeO-DMT (20 mg/kg) group). Also, the “animals euthanized for early signs of serotonin-associated toxicity” value in the series on rats (cohort 2, saline+5-MeO-DMT (10 mg/kg) group) is 2 animals. Moreover, in series [1], the “number of the top 10 dysregulated pathways corrected” value is reported as 9 pathways. In addition, in series [1], the “top 10 cocaine-dysregulated biological pathways corrected” value is given as 90%. Moreover, the Ki on 5-HT1AR was under 10 nM; on 5-HT2Rs, over 1000 nM. For the same molecule, in the series on cerebral organoids, the mGluR5 receptor expression result is listed as “decrease in mGluR5 receptor expression”. Besides, in series [2], the acute toxic signs result is “dose-dependently produce ataxia, mydriasis, head nodding, tremor, convulsion and shivering”.
